Measured values: patent US9718788B2, “Heteroaryl compounds useful as inhibitors of E1 activating enzymes” (MILLENNIUM PHARMACEUTICALS, INC., priority 2006, dated 2017)

Target: T1, recombinant human NAE enzyme (Homo sapiens, UniProt Q8TBC4)
T1 construct: His (N); made in house; host or cells: Sf9 insect cells (baculovirus, Bac-to-Bac)
T1 sequence (Q8TBC4 1-463): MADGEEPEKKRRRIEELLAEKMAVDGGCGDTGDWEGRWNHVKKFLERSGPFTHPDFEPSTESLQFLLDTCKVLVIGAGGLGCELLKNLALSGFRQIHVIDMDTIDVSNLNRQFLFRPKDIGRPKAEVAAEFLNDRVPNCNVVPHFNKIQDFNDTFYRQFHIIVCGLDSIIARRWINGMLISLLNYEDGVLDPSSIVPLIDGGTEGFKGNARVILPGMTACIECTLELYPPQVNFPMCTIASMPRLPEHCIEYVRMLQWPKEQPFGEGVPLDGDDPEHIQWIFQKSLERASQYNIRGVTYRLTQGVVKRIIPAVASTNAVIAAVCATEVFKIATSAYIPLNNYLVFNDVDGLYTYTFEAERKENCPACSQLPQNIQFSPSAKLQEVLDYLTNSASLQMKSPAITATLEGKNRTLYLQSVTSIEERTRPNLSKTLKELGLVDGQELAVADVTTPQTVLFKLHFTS
T1 sequence (Q13564 1-534 partner): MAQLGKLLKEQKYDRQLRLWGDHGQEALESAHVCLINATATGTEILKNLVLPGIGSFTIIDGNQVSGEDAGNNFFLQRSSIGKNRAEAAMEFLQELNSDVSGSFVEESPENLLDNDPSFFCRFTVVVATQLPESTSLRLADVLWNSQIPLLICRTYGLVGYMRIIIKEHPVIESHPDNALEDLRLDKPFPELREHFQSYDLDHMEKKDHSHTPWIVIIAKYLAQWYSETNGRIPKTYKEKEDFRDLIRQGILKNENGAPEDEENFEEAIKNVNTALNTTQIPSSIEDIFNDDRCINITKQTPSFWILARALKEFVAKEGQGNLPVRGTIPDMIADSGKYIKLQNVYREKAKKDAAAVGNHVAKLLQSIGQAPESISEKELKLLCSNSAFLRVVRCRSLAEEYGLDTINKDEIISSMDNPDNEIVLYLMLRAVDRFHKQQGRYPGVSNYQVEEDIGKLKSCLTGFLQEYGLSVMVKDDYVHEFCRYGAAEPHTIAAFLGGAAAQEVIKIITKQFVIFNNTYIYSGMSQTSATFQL
Assay: Nedd8-Activating Enzyme (NAE) HTRF Assay
Format: biochemical
Conditions: 20 μM ATP
Procedure, shortened: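 Recombinant human NAE (NAEα/His-NAEβ from Sf9 cells) at 0.20 nM with 20 μM ATP, 0.01 μM Ubc12-GST and 0.075 μM Nedd8-Flag in HEPES pH 7.5, 105 min at 24° C. EDTA stop; Eu-anti-FLAG/APC-anti-GST HTRF read after 1 h.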

Structure (SMILES)	IC50 (bound given in nM) [nM]	IC50 (bound given in μM) [nM]
NS(=O)(=O)OC[C@@H]1C[C@@H](Oc2ncnc3nc(-c4c[nH]c5ccccc45)[nH]c23)C[C@@H]1O [Compound I-140, ((1S,2S,4R)-2-hydroxy-4-{[8-(1H-indol-3-yl)-7H-purin-6-yl]oxy}cyclopentyl)methyl sulfamate]	≤ 500	–
NS(=O)(=O)OC[C@@H]1C[C@@H](Oc2cc(OCc3ccc4ccccc4c3)ncn2)C[C@@H]1O [Compound I-141, ((1S,2S,4R)-2-hydroxy-4-{[6-(2-naphthylmethoxy)pyrimidin-4-yl]oxy}cyclopentyl)methyl sulfamate]	> 500	< 10000
CO[C@H]1CCc2ccccc2[C@H]1Nc1cc(O[C@@H]2C[C@@H](COS(N)(=O)=O)[C@@H](O)C2)ncn1 [Compound I-142, {(1S,2S,4R)-2-hydroxy-4-[(6-{[(1R,2S)-2-methoxy-1,2,3,4-tetrahydronaphthalen-1-yl]amino}pyrimidin-4-yl)oxy]cyclopentyl}methyl sulfamate]	≤ 500	–
CO[C@@H]1CCc2ccccc2[C@@H]1Nc1cc(O[C@@H]2C[C@@H](COS(N)(=O)=O)[C@@H](O)C2)ncn1 [Compound I-143, {(1S,2S,4R)-2-hydroxy-4-[(6-{[(1S,2R)-2-methoxy-1,2,3,4-tetrahydronaphthalen-1-yl]amino}pyrimidin-4-yl)oxy]cyclopentyl}methyl sulfamate]	≤ 500	–
NS(=O)(=O)OC[C@H]1C[C@@H](Nc2ccnc(C(=O)N[C@H]3CCc4ccccc43)c2)[C@H](O)[C@@H]1O [Compound I-144, {(1R,2R,3S,4R)-4-[(2-{[(1S)-2,3-dihydro-1H-inden-1-ylamino]carbonyl}pyridin-4-yl)-amino]-2,3-dihydroxycyclopentyl}methyl sulfamate]	–	> 10000
NS(=O)(=O)OC[C@H]1C[C@@H](Nc2ccnc(C(=O)N3CCc4ccccc43)c2)[C@H](O)[C@@H]1O [Compound I-145, ((1R,2R,3S,4R)-4-{[2-(2,3-dihydro-1H-indol-1-ylcarbonyl)pyridin-4-yl]amino}-2,3-dihydroxycyclopentyl)methyl sulfamate]	–	> 10000
NS(=O)(=O)OC[C@@H]1C[C@@H](N2CCc3c(N[C@H]4CCc5ccccc54)ncnc32)C[C@@H]1O [Compound I-146, ((1S,2S,4R)-4-{4-[(1S)-2,3-dihydro-1H-inden-1-ylamino]-5,6-dihydro-7H-pyrrolo[2,3-d]pyrimidin-7-yl}-2-hydroxycyclopentyl)methyl sulfamate]	≤ 500	–
NS(=O)(=O)OC[C@@H]1C[C@@H](Nc2ncnc(N[C@@H]3c4ccccc4CC3(F)F)n2)C[C@@H]1O [Compound I-147, {(1S,2S,4R)-4-[(4-{[(1R)-2,2-difluoro-2,3-dihydro-1H-inden-1-yl]amino}-1,3,5-triazin-2-yl)amino]-2-hydroxycyclopentyl}methyl sulfamate]	≤ 500	–
COc1ccc2c(c1)[C@H](Nc1cc(O[C@@H]3C[C@@H](COS(N)(=O)=O)[C@@H](O)C3)ncn1)[C@H](OC)CC2 [Compound I-148, {(1S,2S,4R)-4-[(6-{[(1S,2R)-2,7-dimethoxy-1,2,3,4-tetrahydronaphthalen-1-yl]amino}-pyrimidin-4-yl)oxy]-2-hydroxycyclopentyl}methyl sulfamate]	> 500	< 10000
COc1ccc2c(c1)[C@@H](Nc1cc(O[C@@H]3C[C@@H](COS(N)(=O)=O)[C@@H](O)C3)ncn1)[C@@H](OC)CC2 [Compound I-149, {(1S,2S,4R)-4-[(6-{[(1R,2S)-2,7-dimethoxy-1,2,3,4-tetrahydronaphthalen-1-yl]amino}-pyrimidin-4-yl)oxy]-2-hydroxycyclopentyl}methyl sulfamate]	> 500	< 10000
CO[C@H]1CC(C)(C)c2ccccc2[C@H]1Nc1cc(O[C@@H]2C[C@@H](COS(N)(=O)=O)[C@@H](O)C2)ncn1 [Compound I-150, {(1S,2S,4R)-2-hydroxy-4-[(6-{[(1R,2S)-2-methoxy-4,4-dimethyl-1,2,3,4-tetrahydronaphthalen-1-yl]amino}pyrimidin-4-yl)oxy]cyclopentyl}methyl sulfamate]	≤ 500	–
CO[C@@H]1CC(C)(C)c2ccccc2[C@@H]1Nc1cc(O[C@@H]2C[C@@H](COS(N)(=O)=O)[C@@H](O)C2)ncn1 [Compound I-151, {(1S,2S,4R)-2-hydroxy-4-[(6-{[(1S,2R)-2-methoxy-4,4-dimethyl-1,2,3,4-tetrahydronaphthalen-1-yl]amino}pyrimidin-4-yl)oxy]cyclopentyl}methyl sulfamate]	≤ 500	–
NS(=O)(=O)OC[C@H]1CC[C@H](Oc2ncnc3[nH]c(-c4cccc5ccccc45)nc23)C1 [Compound I-152, ((1S,3S)-3-{[8-(1-naphthyl)-9H-purin-6-yl]oxy}cyclopentyl)methyl sulfamate]	> 500	< 10000
NS(=O)(=O)OC[C@@H]1C[C@@H](Nc2ncnc(N[C@H]3CCc4ccccc43)n2)C[C@@H]1O [Compound I-153, [(1S,2S,4R)-4-({4-[(1S)-2,3-dihydro-1H-inden-1-ylamino}-1,3,5-triazin-2-yl}amino)-2-hydroxycyclopentyl]methyl sulfamate]	≤ 500	–
